Assay results from patent US10112890B2, “Compound, salt of compound, external agent for skin, cosmetic, and food additive” (SHOWA DENKO K.K., priority 2015, dated 2018).

Test system: three-dimensionally cultured human skin model ("EPI-606X")
Test: Skin permeability test
Assay type: in vitro ADME
Details: 24 hours; for Permeability (%): permeability into the skin model, 0.2% by mass sample solution in PBS (-), pH 7.4, 700 μL, 37° C., skin model extract plus receiver liquid, HPLC, (A/1400)×100; for permeability compared with compound (9)-101 / permeability compared with sodium pantothenate: skin model, comparison in words
Description: The compound (1)-301, the compound (1)-302, the compound (9)-101, and sodium pantothenate (manufactured by Tokyo Kasei Kogyo Co., Ltd., the compound represented by the following formula) were respectively dissolved in Dubecco's PBS (−), and the pH of a solution was adjusted to 7.4 using a sodium hydroxide aqueous solution or hydrochloric acid, to obtain a solution having a concentration of 0.2% by mass as a sample solution. A three-dimensionally cultured human skin model (“EPI-606X”, manufactured by KURABO INDUSTRIES LTD.) was set such that the lower portion thereof was immersed in a 6-well plate containing the PBS solution (1 mL), and was allowed to stand in an incubator for 30 minutes under conditions of 37° C. at a carbon dioxide concentration of 5%. Next, the PBS solution was replaced with an HBSS (−) solution (1 mL) (hereinafter, referred to as a “receiver liquid”), the sample solution (700 μL) obtained in the above-described manner was added to the skin model, and the skin model was allowed to stand in an incubator under conditions of 37° C. at a carbon dioxide concentration of 5%. After the skin model was allowed to stand for 24 hours, the sample solution on the skin model was removed using a pipette, the skin model was taken out from the well and washed with the PBS (−) solution. Subsequently, a slice was cut from the skin model and put into a 2 mL tube. Methanol (1 mL) and stainless steel beads (manufactured by Tomy Company, Ltd., diameter of 5.5 mm) were added to the tube, and the slice was crushed under conditions of 2000 rpm for 10 seconds ten times using MULTI BEADS SHOCKER (manufactured by Yasui Kikai Corporation). After the slice was crushed, the obtained solution was transferred to a 2 mL Eppendorf tube and centrifuged at 12000 rpm for 5 minutes, the supernatant was filtered using a filter (pore size of 0.22 μm), thereby obtaining a skin model extract. Next, the compound (1)-301, the compound (1)-302, the compound (9)-101, and sodium pantothenate in the skin model extract and the receiver liquid were quantified by analyzing each of the compounds (test substances) using HPLC described above, and a total value A (μg) of these quantitative values was calculated. Further, the permeability into the skin model (%) of each of the compound (1)-301 (Example 1), the compound (1)-302 (Example 2), the compound (9)-101 (Reference Example 1), and sodium pantothenate (Comparative Example 1) added to the skin model was calculated according to Equation (i). Permeability (%)=(A/1400)×100 (i)

Compound	Permeability (%)	permeability compared with compound (9)-101	permeability compared with sodium pantothenate
CCCCCCCCCCCCCCCC(=O)OCC(C)(C)C(O)C(=O)NCCC(=O)O (stereo not drawn) [Compound (1)-301, 3-[N-(4-hexadecanoyloxy-3,3-dimethyl-2-hydroxybutyryl)amino]propionic acid]	41 ± 4.7%	clearly higher permeability	clearly higher permeability
CCCCCCCCC(CCCCCC)C(=O)OCC(C)(C)C(O)C(=O)NCCC(=O)O (stereo not drawn) [Compound (1)-302, 3-[N-(4-(2-hexyldecanoyl)oxy-3,3-dimethyl-2-hydroxybutyryl)amino]propionic acid]	44 ± 2.7%	clearly higher permeability	clearly higher permeability
CCCCCCCCCC(=O)OCC(C)(C)C(O)C(=O)NCCC(=O)O (stereo not drawn) [Compound (9)-101, 3-[N-(4-decanoyloxy-3,3-dimethyl-2-hydroxybutyryl)amino]propionic acid, reference compound]	29 ± 0.8%		clearly higher permeability
CC(C)(CO)[C@@H](O)C(=O)NCCC(=O)[O-].[Na+] [Sodium pantothenate, sodium pantothenate, reference compound]	18 ± 0.4%		
